Assay results: US20100143428A1, “A STABLE GLUTARALDEHYDE COMPLEX” (priority 2006, published 2010)

Tested on: bacteria
Assay: Residual efficacy on bacterially contaminated surfaces, duration of effect
Format: cell-based
Settings: "as is"
Description: Table 1 tabulates results of a residual efficacy test done on the product of the invention (sample number RT14) by the South African Bureau of Standards (SABS) using the European surface test method (1993), to determine the residual efficacy of the sample on bacterially contaminated surfaces.
The surfaces of stainless steel discs (2 cm^2) were seeded with a 0.1 ml bacterial suspension containing 10^7 bacterial cells/ml and thereafter dried at 37° C. for one hour. The 0.1 ml RT14 sample was dropped onto the dried disc, ensuring that the disc was totally covered. After 24 hours, 48 hours, 7 days, 14 days and 30 days respectively, the surfaces were again seeded with a bacterial suspension. After a minute contact time, the stainless steel discs were placed in conical flasks containing 10m1 of a neutralization medium to neutralize the RT14 and the flasks were shaken to dislodge the cells from the discs. Tenfold dilutions of the flask contents were placed onto sterile petri dishes. Nutrient agar was poured onto the petri dishes, mixed with contents, and incubated at 37° C. for 2 days. Colony-forming bacterial cells were counted. Untreated stainless steel discs were used as controls.

## O=CCCCC=O [glutaraldehyde]
  duration of effectiveness on bacteria: up to 10 hours
